For one series, the system named is anti-nicotine antibodies. In kind it is binding.
For series [1] the following is noted: five BSA digoxin immunised rabbits, cited from earlier work.
The conditions of series [2]: liver, cited from earlier work.
[3] abbreviates: antibodies elicited by Nic-O-Su-Cholera Toxin B conjugates, relative to nicotine.

SMILES strings stand for the structures. Like-named read-outs stand apart in the source and are kept apart here.

The compound `CN1C(=O)C[C@@H](C(=O)O)[C@@H]1c1cccnc1` (relative stereo) [trans-4-cotininecarboxylic acid] gave an immunologic cross-reactivity in the series on anti-nicotine antibodies (setting [3]) of 0.19%.
The same measure, in the same setting: under `CN1C(=O)CC[C@H]1c1cccnc1` [cotinine] stands 1.1%.
For the compound `C[C@H]1O[C@@H](O[C@H]2[C@@H](O)C[C@H](O[C@H]3[C@@H](O)C[C@H](O[C@H]4CC[C@@]5(C)[C@H](CC[C@@H]6[C@@H]5C[C@@H](O)[C@]5(C)[C@@H](C7=CC(=O)OC7)CC[C@]65O)C4)O[C@@H]3C)O[C@@H]2C)C[C@H](O)[C@@H]1O` [digoxin], the “mean serum concentration of digoxin” value in series [1] (at one year) is recorded as 85 nanogram/ml; in series [1] (initially), 8200 nanogram/ml.
Regarding `CN1CCCC1c1cccnc1` (centres unmarked) [nicotine], the “nicotine transformed to nicotine N'-oxide” value in series [2] (flavin containing monooxygenase 3) is 4-7%. Also, the “nicotine glucuronidation, share of metabolized nicotine” value in series [2] (uridine diphosphate-glucuronosyltransferase) was 3-5%.
As for `O=C(O)c1cccnc1` [nicotinic acid], in the series with anti-nicotine antibodies, the immunologic cross-reactivity came out at 0.09%.
In the series with anti-nicotine antibodies (setting [3]), `c1cncc([C@@H]2CCCN2)c1` [nornicotine] came in with an immunologic cross-reactivity of 4%.

The values above are taken from patent US20060111271A1 (priority 2004, published 2006).
